PubChem BioAssay AID1259411 (Chemical Carcinogenesis Research Information System (CCRIS), 2018)
Calls of active or inactive are those of the source. How the calls were made is not given here.

Tested on: rodent carcinogenicity bioassays, tumor incidence
Assay: CCRIS carcinogenicity studies
Procedure, shortened: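 NCI-built, expert-reviewed records of carcinogenicity and related test outcomes (mutagenicity, tumor promotion/inhibition) compiled from published and report sources, historical span 1985-2011, not updated.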

CN(C)c1ccc(C(=O)c2ccc(N(C)C)cc2)cc1
carcinogen call (Species: MOUSE, Strain/Sex: B6C3F1/FEMALE, Route: ORAL, Dose: 0, 1250, 2500 PPM IN DIET, Dose: 0, 1250, 2500 PPM IN DIET, Tumor Site: Type of Lesion: LIVER: HEPATOCELLULAR ADENOMA OR CARCINOMA): active; positive | carcinogen call (Species: MOUSE, Strain/Sex: B6C3F1/MALE, Route: ORAL, Dose: 0, 1250, 2500 PPM IN DIET, Dose: 0, 1250, 2500 PPM IN DIET, Tumor Site: Type of Lesion: INTEGUMENTARY SYSTEM (SUBCUTANEOUS TISSUE): HEMANGIOSARCOMA OR HEMANGIOMA): active; positive | carcinogen call (Species: RAT, Strain/Sex: F344/FEMALE, Route: ORAL, Dose: 0, 500, 1000 PPM IN DIET, Dose: 0, 500, 1000 PPM IN DIET, Tumor Site: Type of Lesion: LIVER: HEPATOCELLULAR CARCINOMA OR NEOPLASTIC NODULE): active; positive | carcinogen call (Species: RAT, Strain/Sex: F344/MALE, Route: ORAL, Dose: 0, 250, 500 PPM IN DIET, Dose: 0, 250, 500 PPM IN DIET, Tumor Site: Type of Lesion: LIVER: HEPATOCELLULAR CARCINOMA OR NEOPLASTIC NODULE): active; positive

CCCCCCCCCCCCc1ccccc1
carcinogen call (Species: MOUSE, Strain/Sex: HR/HR OSLO/MALE, FEMALE, Route: DERMAL, Dose: 0, 16, 80% IN ACETONE 2/WK FOR 78 WK (STUDY DURATION: 80 WK), Dose: 0, 16, 80% IN ACETONE 2/WK FOR 78 WK (STUDY DURATION: 80 WK), Tumor Site: Type of Lesion: SKIN: TUMOR): active; positive

CC1=NN(c2ccccc2)C(=O)C1
carcinogen call (Species: MOUSE, Strain/Sex: B6C3F1/FEMALE, Route: ORAL, Dose: 0, 7500, 15000 PPM IN DIET, Dose: 0, 7500, 15000 PPM IN DIET): inactive; negative | carcinogen call (Species: MOUSE, Strain/Sex: B6C3F1/MALE, Route: ORAL, Dose: 0, 7500, 15000 PPM IN DIET, Dose: 0, 7500, 15000 PPM IN DIET): inactive; negative | carcinogen call (Species: RAT, Strain/Sex: F344/FEMALE, Route: ORAL, Dose: 0, 2500, 5000 PPM IN DIET, Dose: 0, 2500, 5000 PPM IN DIET): inactive; negative | carcinogen call (Species: RAT, Strain/Sex: F344/MALE, Route: ORAL, Dose: 0, 2500, 5000 PPM IN DIET, Dose: 0, 2500, 5000 PPM IN DIET): inactive; negative

O=NN1CCCC[C@H]1c1cccnc1
carcinogen call (Species: MOUSE, Strain/Sex: STRAIN-A/FEMALE, Route: INTRAPERITONEAL, Dose: 0, 100 UMOL TOTAL DOSE ADMINISTERED IN SUBDOSES 3/WK FOR 7 WK (STUDY DURATION: 37 WK), Tumor Site: Type of Lesion: LUNG: TUMOR): active; positive

OCC(Cl)(Cl)Cl
carcinogen call (Species: MOUSE, Strain/Sex: B6C3F1/FEMALE, Route: INTRAPERITONEAL, Dose: 0, 1000 NMOL TOTAL DOSE, 1/3 AND 2/3 OF THE TOTAL DOSE ADMINISTERED AT 8 AND 15 DAYS OF AGE RESPECTIVELY, ANIMALS TERMIN): inactive; negative | carcinogen call (Species: MOUSE, Strain/Sex: B6C3F1/FEMALE, Route: INTRAPERITONEAL, Dose: 0, 2000 NMOL TOTAL DOSE, 3/7 AND 4/7 OF THE TOTAL DOSE ADMINISTERED AT 8 AND 15 DAYS OF AGE RESPECTIVELY, ANIMALS TERMIN): inactive; negative | carcinogen call (Species: MOUSE, Strain/Sex: B6C3F1/MALE, Route: INTRAPERITONEAL, Dose: 0, 1000 NMOL TOTAL DOSE, 1/3 AND 2/3 OF THE TOTAL DOSE ADMINISTERED AT 8 AND 15 DAYS OF AGE RESPECTIVELY, ANIMALS TERMIN): inactive; negative | carcinogen call (Species: MOUSE, Strain/Sex: B6C3F1/MALE, Route: INTRAPERITONEAL, Dose: 0, 2000 NMOL TOTAL DOSE, 3/7 AND 4/7 OF THE TOTAL DOSE ADMINISTERED AT 8 AND 15 DAYS OF AGE RESPECTIVELY, ANIMALS TERMIN): inactive; negative

CN1COCN(Cc2cnc(Cl)s2)/C1=N/[N+](=O)[O-]
carcinogen call (Species: MOUSE, Strain/Sex: TIF:MAGF/MALE, Route: DIET, Dose: 0, 50, 200, 500, 1250, 2500, 5000 PPM IN DIET FOR UP TO 50 WKS (STUDY DURATION: 50 WKS), Dose: 0, 50, 200, 500, 1250, 2500, 5000 PPM IN DIET FOR UP TO 50 WKS (STUDY DURATION: 50 WKS)): inactive; negative for tumors but apoptosis and necrosis observed in liver at doses of 500 | carcinogen call (Species: RAT, Strain/Sex: TIF:RAIF/FEMALE, Route: ORAL (DIET), Dose: 0, 1000, 3000 PPM FOR 1, 10, 20, 30, 40, OR 50 WKS, Dose: 0, 1000, 3000 PPM FOR 1, 10, 20, 30, 40, OR 50 WKS): inactive; negative

O=C1CCO1
carcinogen call (Species: MOUSE, Route: DERMAL, Tumor Site: Type of Lesion: INTEGUMENTARY SYSTEM (SKIN)): active; positive | carcinogen call (Species: MOUSE, Route: INTRAPERITONEAL, Tumor Site: Type of Lesion: LIVER, LYMPHATIC SYSTEM: LYMPHOMA): active; positive | carcinogen call (Species: MOUSE, Route: SUBCUTANEOUS, Tumor Site: Type of Lesion: INJECTION SITE): active; positive | carcinogen call (Species: MOUSE, Strain/Sex: CF1/FEMALE, Route: DERMAL, Dose: 0, 2% IN ACETONE 2D/WK FOR 2 YR (STUDY DURATION: 2 YR), Tumor Site: Type of Lesion: SKIN: SQUAMOUS CELL CARCINOMA, SKIN: CARCINOSARCOMA): active; positive | carcinogen call (Species: MOUSE, Strain/Sex: CF1/MALE, Route: DERMAL, Dose: 0, 2% IN ACETONE 2D/WK FOR 104 WK (STUDY DURATION: 2 YR), Tumor Site: Type of Lesion: SKIN: SQUAMOUS CELL CARCINOMA, SKIN: DERMAL FIBROSARCOMA, SKIN: CARCINOSARCOMA, Tumor Site: Type of Lesion: SKIN: SQUAMOUS CELL CARCINOMA, SKIN: DERMAL FIBROSARCOMA, SKIN: CARCINOSARCOMA): active; positive | carcinogen call (Species: RAT, Route: SUBCUTANEOUS, Tumor Site: Type of Lesion: INJECTION SITE): active; positive | carcinogen call (Species: RAT, Strain/Sex: SPRAGUE-DAWLEY/MALE, Route: INHALATION, Dose: 0, 5, 10, 20 PPM 6 HR/D 5 D/WK FOR 30 D EXCEPT 20 PPM GROUP WHICH WAS EXPOSED FOR 5 D (STUDY DURATION: LIFETIME), Dose: 0, 5, 10, 20 PPM 6 HR/D 5 D/WK FOR 30 D EXCEPT 20 PPM GROUP WHICH WAS EXPOSED FOR 5 D (STUDY DURATION: LIFETIME), Tumor Site: Type of Lesion: NASAL CAVITY: TUMORS): active; positive
